Reference: US12527884B2, “Use of cyclodextrins as a radiostabilizer” (GE Healthcare Limited, priority 2019, dated 2026)

How the values were obtained:
[1] = Radiochemical purity (RCP) and [18F]fluoride of formulated [18F]flurpiridaz during storage (radio TLC or HPLC); format: physicochemical
Protocol: Radiochemical purity (RCP) is determined using radio TLC or HPLC and can be defined as the ratio of the (radio-labelled) drug substance peak to the total (radio-labelled) peaks in the chromatogram. If one manufactures a radiopharmaceutical with high radioactive concentration (RAC), the drop in RCP during storage is likely to be higher than at lower RAC due to more radiolysis. High radioactivity results in the drug substance destroying itself (i.e. radiolysis). The most efficient stabilizer can be identified by preparing different formulations of radiopharmaceuticals at similar RAC and comparing the drop in RCP over time, typically 8-10 hours for ^18F compounds.
The first 45 mL product vial was composed of water (42 mL), ethanol (3 mL), calcium disodium edetate (0.25 mg/mL), ascorbic acid (50 mg/mL) and sodium hydroxide (7.5 mg/mL). […]

[2] = Aqueous solubility of flurpiridaz with HPbCD; format: physicochemical

radiostability ([1]; 30 mg/mL ascorbic acid and 40 mg/mL HPbCD vs 50 mg/mL ascorbic acid without HPbCD): equal or better
change in RCP over 4 to 10 h (FIG. 2) ([1]; 30 to 50 mg/mL ascorbic acid (pH ~6), with or without 40-47 mg/mL HPbCD, ca. 7% (v/v) ethanol, 0-21% (v/v) oxygen headspace): reduction
aqueous solubility [2]: improves
Structure (SMILES): CC(C)(C)n1ncc(OCc2ccc(COCCF)cc2)c(Cl)c1=O [[^18F]flurpiridaz, flurpiridaz]
